Usually bioavailability stands for the share of a dose that reaches the circulation, judged against a reference dose that is usually intravenous. As a reminder, the DC50 is the concentration at which degradation of the target reaches its halfway point. A lower DC50 goes with degradation at low concentration.

The values that follow come from patent US20250059164A1, “IRAK DEGRADERS AND USES THEREOF” (Kymera Therapeutics, Inc., priority 2023, published 2025).

Data set [1] can be described thus: Rodent pharmacokinetics (rat PK). It is filed as in vivo. The conditions noted are these: po, dosed intravenously or orally by gavage, plasma, read-out: F % (bioavailability). An outline of the steps: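 Rats were dosed IV or by oral gavage, with jugular blood taken predose and at 5 min (IV only), 15, 30 min and 1, 2, 4, 8, 24 h. Plasma was separated by centrifugation at 4 °C. Oral bioavailability (F %) is coded A (≥5%) or B (≤5%).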

The target of a further data set is T1, IRAK4 (Homo sapiens, UniProt Q9NWZ3).
T1 construct: endogenous in cells; host or cells: OCI-LY10
T1 sequence (Q9NWZ3 1-460): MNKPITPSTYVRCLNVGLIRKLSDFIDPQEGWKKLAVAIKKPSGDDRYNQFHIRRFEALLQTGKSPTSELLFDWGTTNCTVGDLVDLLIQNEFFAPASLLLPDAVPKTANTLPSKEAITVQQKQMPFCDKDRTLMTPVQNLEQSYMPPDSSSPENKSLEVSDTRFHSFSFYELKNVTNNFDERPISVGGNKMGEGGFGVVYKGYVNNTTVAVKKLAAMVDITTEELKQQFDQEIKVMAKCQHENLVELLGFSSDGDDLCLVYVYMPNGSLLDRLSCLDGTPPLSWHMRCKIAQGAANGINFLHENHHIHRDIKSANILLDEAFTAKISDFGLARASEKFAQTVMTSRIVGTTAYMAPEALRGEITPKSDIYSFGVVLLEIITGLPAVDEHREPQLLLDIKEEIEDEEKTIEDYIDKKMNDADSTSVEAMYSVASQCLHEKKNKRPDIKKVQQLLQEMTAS
Description: IRAK4 MSD degradation in OCI-LY10. It is filed as cell-based. The settings on record: OCI-LY10 cells, 24 hrs, Meso Scale Discovery. The method in brief:
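OCI-LY10 cells treated 4 to 24 hours at 37° C. with 8-dose 1:3 series, top 1 to 10 μM. IRAK4 in lysates quantified by MSD sandwich immunoassay (mouse capture, rabbit detection, SULFO-TAG anti-rabbit). DC50 from three-parameter logistic fit.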

For `COc1cc2nc([C@H]3CC[C@H](CN4CCC5(CN(c6cccc7c6n(C)c(=O)n7C6CCC(=O)NC6=O)C5)C(F)(F)C4)CC3)sc2cc1NC(=O)c1cncc(C#N)c1` (stereo partly shown) [I-110], the bioavailability in data set [1] was at most 5%. This compound also returned a DC50 on IRAK4 of 10 to 100 nM.

For the compound `Cn1c(=O)n(C2CCC(=O)NC2=O)c2cccc([C@@H]3CCN(C[C@H]4CC[C@H](n5cc6cc(NC(=O)c7csc(C(F)(F)F)n7)ccc6n5)CC4)C[C@H]3F)c21` (stereo partly shown) [I-149], the bioavailability in data set [1] is at most 5%. Also, at IRAK4, the DC50 is below 10 nM.

`Cn1c(=O)n(C2CCC(=O)NC2=O)c2cccc(CCCOC[C@H]3CC[C@H](n4cc(NC(=O)c5cnn6ccc(N7C[C@H]8C[C@@H]7CO8)nc56)c(C(F)F)n4)CC3)c21` (stereo partly shown) [I-109]: the bioavailability in data set [1] is at most 5%. Also, the DC50 on IRAK4 is above 200 nM.

For the compound `Cn1c(=O)n(C2CCC(=O)NC2=O)c2cccc([C@@H]3CCN(C[C@H]4CC[C@H](c5nc6cc(C(C)(C)O)c(NC(=O)c7ccnc(C(F)(F)F)n7)cc6s5)CC4)C[C@H]3F)c21` (stereo partly shown) [I-170], in data set [1], the bioavailability is at least 5%. The same compound showed a DC50 on IRAK4 below 10 nM.

Regarding `Cn1c(=O)n(C2CCC(=O)NC2=O)c2cccc(N3CC4(CCN(C[C@H]5CC[C@H](c6nc7cc(C(C)(C)O)c(NC(=O)c8cncc(C#N)c8)cc7s6)CC5)CC4(F)F)C3)c21` (stereo partly shown) [I-367], the bioavailability in data set [1] is at least 5%. Also, the DC50 on IRAK4 was in the range of 10 to 100 nM.

Turning to `Cn1c(=O)n(C2CCC(=O)NC2=O)c2cccc([C@@H]3CCN(C[C@H]4CC[C@H](c5cn6cc(NC(=O)c7cccc(C(F)(F)F)n7)c(C(C)(C)O)cc6n5)CC4)C[C@H]3F)c21` (stereo partly shown) [I-268], the bioavailability in data set [1] was at most 5%. The half-maximal degradation concentration (DC50) at IRAK4 is below 10 nM.

`Cn1c(=O)n(C2CCC(=O)NC2=O)c2cccc([C@@H]3CCN(C[C@H]4CC[C@H](c5nc6cc(C(C)(C)O)c(NC(=O)c7cncc(C#N)c7)cc6o5)CC4)C[C@H]3F)c21` (stereo partly shown) [I-405]: the bioavailability in data set [1] is at most 5%. At IRAK4, this compound yielded a DC50 of 10 to 100 nM.

For `COc1ccc2c(c1N1CC3(CCN(C[C@H]4CC[C@H](c5nc6cc(C(C)(C)O)c(NC(=O)c7cccc(C(F)(F)F)n7)cc6o5)CC4)CC3(F)F)C1)n(C)c(=O)n2C1CCC(=O)NC1=O` (stereo partly shown) [I-415], in data set [1], the bioavailability was at most 5%. On IRAK4, this compound gave a DC50 below 10 nM.

Consider `COc1cc2nn([C@H]3CC[C@H](CN4CC[C@@H](c5c(Cl)ccc6c5n(C)c(=O)n6C5CCC(=O)NC5=O)[C@H](F)C4)CC3)cc2cc1NC(=O)c1cncc(C#N)c1` (stereo partly shown) [I-133], for which, in data set [1], the bioavailability was at most 5%. The same compound returned a DC50 at IRAK4 below 10 nM.

Turning to `CC(C)Oc1cc2nn([C@H]3CC[C@H](CN4CC[C@@H](c5cccc6c5n(C)c(=O)n6C5CCC(=O)NC5=O)[C@H](F)C4)CC3)cc2cc1NC(=O)c1cncc(C#N)c1` (stereo partly shown) [I-275], the bioavailability in data set [1] is at most 5%. For the same compound, the DC50 on IRAK4 was below 10 nM.

As to `O=C1CCC(c2ccc(N3CC(N4CCN([C@H]5CC[C@H](n6cc(NC(=O)c7cnn8ccc(N9C[C@H]%10C[C@@H]9CO%10)nc78)c(C(F)F)n6)CC5)CC4)C3)cc2Cl)C(=O)N1` (single isomer, unassigned) [I-46], in data set [1], the bioavailability was at least 5%. This compound also yielded a DC50 on IRAK4 below 10 nM.

Consider `COc1cc2nn([C@H]3CC[C@H](CN4CCC5(CN(c6cccc7c6n(C)c(=O)n7C6CCC(=O)NC6=O)C5)C(F)(F)C4)CC3)cc2cc1NC(=O)c1cncc(C#N)c1` (stereo partly shown) [I-247], for which the bioavailability in data set [1] is at most 5%. This compound showed a DC50 at IRAK4 below 10 nM.

On to `Cn1c(=O)n(C2CCC(=O)NC2=O)c2cccc([C@@H]3CCN(C[C@H]4CC[C@H](n5cc6cc(NC(=O)c7cncc(C(F)(F)F)n7)c(F)cc6n5)CC4)C[C@H]3F)c21` (stereo partly shown) [I-296], for which the bioavailability in data set [1] was at most 5%. Moreover, at IRAK4, the half-maximal degradation concentration (DC50) is below 10 nM.

Turning to `Cn1c(=O)n(C2CCC(=O)NC2=O)c2cccc([C@@H]3CCN(C[C@H]4CC[C@H](c5nc6cc(C(C)(C)O)c(NC(=O)c7cncc(C(F)(F)F)n7)cc6s5)CC4)C[C@H]3F)c21` (stereo partly shown) [I-173], in data set [1], the bioavailability was at most 5%. The same compound showed a DC50 on IRAK4 below 10 nM.

Consider `Cn1c(=O)n(C2CCC(=O)NC2=O)c2cccc([C@@H]3CCN(C[C@H]4CC[C@H](n5cc6cc(NC(=O)c7cc(C(F)(F)F)ncn7)ccc6n5)CC4)C[C@H]3F)c21` (stereo partly shown) [I-196], for which, in data set [1], the bioavailability was at most 5%. Further, the DC50 at IRAK4 is above 200 nM.

Consider `CN(C[C@H]1CC[C@H](n2cc(NC(=O)c3cnn4cccnc34)c(C(F)F)n2)CC1)[C@@H]1CCN(c2cccc3c2n(C)c(=O)n3C2CCC(=O)NC2=O)C[C@@H]1F` (single isomer, unassigned) [I-281], for which, in data set [1], the bioavailability was at least 5%. At IRAK4, this compound yielded a DC50 below 10 nM.

Turning to `Cc1cc2nn([C@H]3CC[C@H](CN4CC[C@@H](c5cccc6c5n(C)c(=O)n6C5CCC(=O)NC5=O)[C@H](F)C4)CC3)cc2cc1NC(=O)c1cncc(C(F)(F)F)n1` (stereo partly shown) [I-286], the bioavailability in data set [1] was at most 5%. In addition, the DC50 on IRAK4 is below 10 nM.

For `Cn1c(=O)n(C2CCC(=O)NC2=O)c2cccc([C@@H]3CCN(C[C@H]4CC[C@H](n5cc6cc(NC(=O)c7cncc(C(C)(C)C)n7)ccc6n5)CC4)C[C@H]3F)c21` (stereo partly shown) [I-324], the bioavailability in data set [1] was at most 5%. The same compound had a DC50 at IRAK4 below 10 nM.

As for `Cn1c(=O)n(C2CCC(=O)NC2=O)c2cccc(N3CC4(CCN(C[C@H]5CC[C@H](n6cc7cc(NC(=O)c8cccc(C(F)(F)F)c8)ccc7n6)CC5)CC4(F)F)C3)c21` (stereo partly shown) [I-254], the bioavailability in data set [1] is at most 5%. The DC50 at IRAK4 is below 10 nM.

For the compound `CN(C[C@H]1CC[C@H](c2nc3cc(C(C)(C)O)c(NC(=O)c4cccc(C(F)(F)F)c4)cc3s2)CC1)[C@H]1CCN(c2cccc3c2n(C)c(=O)n3C2CCC(=O)NC2=O)C[C@H]1F` (single isomer, unassigned) [I-199], the bioavailability in data set [1] is at least 5%. For the same compound, on IRAK4, the DC50 was in the range of 10 to 100 nM.

For `Cn1c(=O)n(C2CCC(=O)NC2=O)c2cccc([C@H]3CCN(C[C@H]4CC[C@H](n5cc(NC(=O)c6cnn7ccc(N8C[C@H]9C[C@@H]8CO9)nc67)c(C(F)F)n5)CC4)C[C@@H]3F)c21` (single isomer, unassigned) [I-330], the bioavailability in data set [1] is at most 5%. Moreover, at IRAK4, the DC50 is below 10 nM.

For `COc1cc2nn([C@H]3CC[C@H](CN4CC[C@@H](c5cccc6c5n(C)c(=O)n6C5CCC(=O)NC5=O)C(F)(F)C4)CC3)cc2cc1NC(=O)c1cncc(C#N)c1` (single isomer, unassigned) [I-240], the bioavailability in data set [1] was at most 5%. The DC50 on IRAK4 is below 10 nM.

As to `COc1cc(NC(=O)c2cncc(C(F)(F)F)n2)cc2cn([C@H]3CC[C@H](CN4CC[C@@H](c5cccc6c5n(C)c(=O)n6C5CCC(=O)NC5=O)[C@H](F)C4)CC3)nc12` (stereo partly shown) [I-355], the bioavailability in data set [1] is at most 5%. Besides, the DC50 on IRAK4 was below 10 nM.

Regarding `COc1cc2nn([C@H]3CC[C@H](CN4CCC5(CCN(c6cccc7c6n(C)c(=O)n7C6CCC(=O)NC6=O)CC5)C(F)(F)C4)CC3)cc2cc1NC(=O)c1cncc(C#N)c1` (stereo partly shown) [I-259], in data set [1], the bioavailability is at most 5%. The compound further gave a DC50 at IRAK4 below 10 nM.

Take `COc1cc2nn([C@H]3CC[C@H](CN4CC[C@@H](c5cccc6c5n(C)c(=O)n6C5CCC(=O)NC5=O)[C@H](F)C4)CC3)cc2cc1C(=O)Nc1cncc(C(F)(F)F)c1` (stereo partly shown) [I-283]: the bioavailability in data set [1] was at most 5%. On IRAK4, the DC50 is below 10 nM.

Turning to `Cn1c(=O)n(C2CCC(=O)NC2=O)c2cccc([C@@H]3CCN(C[C@H]4CC[C@H](n5cc6cc(NC(=O)c7cncc(C(F)(F)F)n7)c(C(F)F)cc6n5)CC4)C[C@H]3F)c21` (stereo partly shown) [I-214], the bioavailability in data set [1] was at most 5%. Moreover, the DC50 on IRAK4 is below 10 nM.

For `Cn1c(=O)n(C2CCC(=O)NC2=O)c2cccc([C@@H]3CCN(C[C@H]4CC[C@H](n5cc6cc(NC(=O)c7cccc(C#N)c7)ccc6n5)CC4)C[C@H]3F)c21` (stereo partly shown) [I-249], in data set [1], the bioavailability was at most 5%. The compound further yielded a DC50 at IRAK4 below 10 nM.

Take `COc1cn2nc([C@H]3CC[C@H](CN(C)[C@@H]4CCN(c5cccc6c5n(C)c(=O)n6C5CCC(=O)NC5=O)C[C@@H]4F)CC3)cc2cc1NC(=O)c1cncc(C(F)(F)F)n1` (single isomer, unassigned) [I-302]: the bioavailability in data set [1] is at most 5%. For the same compound, the DC50 on IRAK4 is below 10 nM.

As for `Cn1c(=O)n(C2CCC(=O)NC2=O)c2cccc([C@@H]3CCN(C[C@H]4CC[C@H](n5cc6cc(NC(=O)c7cncc(C(F)F)n7)ccc6n5)CC4)CC3(F)F)c21` (stereo partly shown) [I-384], the bioavailability in data set [1] was at most 5%. On IRAK4, this compound had a DC50 below 10 nM.

As for `COc1cc2nn([C@H]3CC[C@H](CN4CC[C@@H](c5cccc6c(C7CCC(=O)NC7=O)nn(C)c56)[C@H](F)C4)CC3)cc2cc1NC(=O)c1cncc(C#N)c1` (single isomer, unassigned) [I-263], the bioavailability in data set [1] was at most 5%. The DC50 on IRAK4 is below 10 nM.

With `COc1cc2nc([C@H]3CC[C@H](CN4CC[C@@H](c5cccc6c5n(C)c(=O)n6C5CCC(=O)NC5=O)[C@H](F)C4)CC3)cn2cc1NC(=O)c1cncc(C(F)(F)F)n1` (stereo partly shown) [I-308], the bioavailability in data set [1] was at most 5%. The same compound registered a DC50 on IRAK4 below 10 nM.

For `Cn1c(=O)n(C2CCC(=O)NC2=O)c2cccc([C@@H]3CCN(C[C@H]4CC[C@H](n5cc6cc(NC(=O)c7cncc(C(F)(F)F)n7)c(C(C)(C)O)cc6n5)CC4)C[C@H]3F)c21` (stereo partly shown) [I-171], the bioavailability in data set [1] is at most 5%. This compound yielded a DC50 on IRAK4 below 10 nM.
